Laboratory results from patent US20260373274A1, “PEPTIDE-LINKED DRUG DELIVERY SYSTEM” (priority 2022, published 2026).

What was measured:
Renca = test: Cell viability and cytotoxicity assay; format: cell-based, murine; conditions: 72 h
Description: (§1) Cell viability and cytotoxicity assay—Cancer cells (3×10^3/well) were seeded on a flat bottom 96-well plate overnight. […] CellTiter Glo reagent (Promega, Madison, WI) was added in each well (50 μL). The luminescence generated was recorded using a microplate reader (Tecan US Inc., Morrisville, NC). The dose response curves were plotted, and the half maximal inhibitory concentrations (IC50 values) were calculated using Graph Pad Prism 6.0 software.

[1] = test system: orthotopic human UMUC-3 tumors; test: Therapeutic efficacy for treating BC, orthotopic UMUC-3/GFP-Luc xenograft
Text: These animals were immediately euthanized I week after the completion of the treatment schedule.
(§2) Slides were then counterstained with Hematoxylin.

[2] = test system: major organs (liver, spleen, heart, lungs, and kidneys); test: Necropsy, histopathology of major organs; format: in vivo, female BALB/c mice
Text: (§3) At the end of a 3-week treatment, mice were euthanized. The organs/tissues were harvested, fixed in 10% neutral buffered formalin for 2 days. Bones were decalcified in a formic acid solution (Surgipath Decalcifier I; Leica Biosystems, Weltzar, Germany). The samples were then embedded in paraffin, sectioned (5 μm), and stained with H&E for examination by an ACVP board certified anatomic pathologist.

Renca/GFP-Luc tumors = test: Kidney cancer treatment, orthotopic Renca/GFP-Luc syngeneic model; format: in vivo, female BALB/c mice; murine tumor cells
Description: Evaluation of DM1-Bdd for Kidney cancer treatment—Renca/GFP-Luc cells ([…]) in PBS (3 μL) were orthotopically implanted into the kidney capsules of 7- to 9-week-old female BALB/c mice (Jackson Laboratory, Bar Harbor, ME) as previously described. The tumor progression was confirmed by bioluminescence imaging. […] The animals were monitored for tumor growth inhibition and survival as described above. Additional mice were used for histopathological analysis (n=4/group).
as §2

[3] = test system: kidney injury molecule-1 (KIM-1) and neutrophil gelatinase-associated lipocalin (NGAL); test: Nephrotoxicity studies, urinary renal injury biomarkers by ELISA; format: in vivo, BALB/c mice; conditions: single i.v. dose; 3 days
Description: The level of the acute renal injury biomarkers, neutrophil gelatinase-associated lipocalin (NGAL) and kidney injury molecule-1 (KIM-1) in the urine samples, were measured using ELISA assays according to the manufacturer's instructions (R&D Systems, Minneapolis, MN). […] All the animals (n=3/group) were euthanized at the end of the treatment and the kidneys were collected and fixed in 10% neutral buffered formalin. The tissues were then processed, embedded in paraffin, sectioned, and stained with H&E. Immunohistochemistry (IHC) for kidney injury (NGAL and KIM-I) was also performed.

Serum biochemistry = format: in vivo, female BALB/c mice; conditions: i.v. weekly for 3 weeks, CIS 10 mg/kg
Text: as §3
(§4) Hematology and biochemistry—Blood samples were collected via cardiac puncture. A complete blood count, including red blood cell, white blood cell, reticulocyte and platelet counts, with an automated differential leukocyte count, was performed using an IDEXX Procyte DX hematology analyzer (iDEXX, Westbrook. ME). Blood smears were prepared, stained with modified Wright's stain, examined in a blinded fashion by a board-certified veterinary clinical pathologist (T.S.), and imaged using a Nikon Eclipse TE2000-U fluorescent microscope equipped with a photometrics CoolSNAP HQ^2 camera (Nikon Corporation, Tokyo, Japan). The blood was also centrifuged (1,500×G) for 15 min to obtain the serum for biochemical analysis using a Beckman Coulter AU680 analyzer (Beckman Coulter, Brea, CA).

panel of BC cell lines = test: Cell viability and cytotoxicity assay, panel; format: cell-based
Description: as §1

[4] = Hematology, complete blood count; format: in vivo, female BALB/c mice; conditions: i.v., 0.75 mg/kg weekly for 3 weeks
Description: as §3, with “Necropsy—Seven- to 9-week-old female BALB/c mice (n=4/group) were treated weekly with PBS, DM1, DM1-peptide (0.75 mg/kg of drug content), or cisplatin (10 mg/kg) via tail-vein injection (150 μL). At” for “At”
as §4

UMUC-3 = test: Cell viability and cytotoxicity assay; format: cell-based, human; conditions: 72 h
Description: as §1

[5] = i.v., 0.75 mg/kg weekly for 3 weeks

## COc1cc2cc(c1Cl)N(C)C(=O)C[C@H](OC(=O)[C@H](C)N(C)C(=O)CCS)[C@]1(C)O[C@H]1[C@H](C)[C@@H]1C[C@@](O)(NC(=O)O1)[C@H](OC)/C=C/C=C(\C)C2 [DM1, N2′-deacetyl-N2′-(3-mercapto-1-oxopropyl)-maytansine]
Renca
  effectiveness against Renca cell line: effective
[1]; bioluminescence imaging during 3 once-per-week treatments
  anti-tumor activity of i.v. DM1-Bdd versus i.v. DM1: similar
[1]; [5]
  animal survival compared to i.t. MIT: prolonged animal survival
  survival after 100 days: 0%
  tumor growth inhibition compared to i.t. MIT: more effective in inhibiting tumor growth
[2]; i.v. weekly for 3 weeks
  overall toxicity: evidences of hepatic and renal injury
[2]; [5]
  extramedullary hematopoiesis (EMH), splenic and hepatic: Increased splenic and hepatic EMH
Renca/GFP-Luc tumors; i.v. or i.t., 0.75 mg/kg weekly for 3 weeks
  survival, i.v. or i.t.: died
Renca/GFP-Luc tumors; one week after completing the treatment course
  tumor in kidneys by histological examination: large and accompanied with an infiltration of mononuclear cells
[3]
  induction of KIM-1 and/or NGAL, 3 days: continued induction of KIM-1 and/or NGAL
Serum biochemistry; DM1 0.75 mg/kg
  muscle injury (CK activity): induced muscle injury (CK activity)
Serum biochemistry; DM1/DM1-Bdd 0.75 mg/kg
  hepatotoxicity: release of ALP, ALT, and AST: increases in ALT and AST activities
  urea nitrogen/creatinine ratio: increases in ALT and AST activities and BUN/creatinine ratios
Panel of BC cell lines
  fold more potent than commonly used ITC drugs, including MIT, DOX and CIS: 100 fold
[4]
  inflammatory response: inflammatory response characterized by increased proportions of neutrophils, monocytes, and platelets
  reticulocytes: induced reticulocytosis without apparent anemia
UMUC-3
  IC50 against UMUC-3: nanomolar (nM) range
  potency against UMUC-3 compared to other chemotherapeutics: more potent than cisplatin (CIS), doxorubicin (DOX) and mitomycin (MIT), and as effective as gemcitabine (GEM)
  potency compared to DOX: more potent than DOX
